pIC50: −log10 of the molar value. Values after ≈ are worked out from the molar mass of the structure shown. Read-outs that look alike come from different tables or passages of the source.
What was measured:
[1] = system: HeLaS3 cells; assay: Growth Inhibitory Effect Against HeLaS3 cells; type: cell-based; conditions: Homo sapiens
Experimental: HeLaS3 cells were suspended in MEM medium containing 10% calf serum and 2 mM glutamine to a concentration of 2.67×10^4 cells/mi. The cell suspension thus prepared was put into wells of a 24-well culture plate in an amount of 0.75 ml per well. After the cells were incubated in a CO2 incubator overnight at 37° C., Compound (I) which had been appropriately diluted with a culture medium was added to each well in an amount of 0.25 ml.
The cells were further incubated in the CO2 incubator for 72 hours, and the culture supernatant was removed. Then, the cells were dispersed in a solution of trypsin and EDTA and recovered. The number of cells was counted using a cell counter. The concentration (IC50) of Compound (I) at which the growth of the cells is inhibited by 50% was calculated by comparing the number of untreated cells with the number of the cells treated with Compound (I) at known concentrations.

[2] = Test for Solubility in Water; type: physicochemical; conditions: room temperature
Experimental: A sample tube was charged with 0.7 mg of Compound (I), and 30 μl of water were added thereto at room temperature. The mixture was stirred, and the solubility in water was measured. When the compound was not dissolved, 30 μl of water was added thereto successively, and the mixture was stirred. The solubility in water was measured when the compound was dissolved.

[3] = system: ddY-strain male mice; assay: Acute Toxicity; type: in vivo; conditions: i.v., mortality at 14 days after administration
Experimental: Compound (I) was intravenously administered to ddY-strain male mice each weighing 20±1 g. MLD (minimum lethal dose) was determined by observing the mortality at 14 days after administration.

[4] = system: Sarcoma 180 tumor; assay: Therapeutic Effect Against Sarcoma 180 Tumor; type: in vivo, male ddY-strain mice; conditions: Mus musculus, Sarcoma-180, iv, 168 h, read-out: T/C
Experimental: Five male ddY-strain mice each weighing 18-20 g were used for each group as test animals, and 5×10^5 Sarcoma 180 tumor cells were implanted at the axilla subcutaneously. One day after the implantation, 0.2 ml of a physiological saline containing Compound (I) at the concentration shown in Table 2 was intravenously administered to each mouse. T/C [T: average tumor volume (mm^3) of the group treated with the test compound, C: average tumor volume (mm^3) of the control group (to which […] of a physiological saline was intravenously administered)] was determined seven days after the implantation.

[5] = HeLa S3, 72 hours, read-out: IC50

| Structure (SMILES) | pIC50 [1, 5] | solubility [2] | MLD (minimum lethal dose) [3] | pIC50 ([1]; HeLa S3, 72 h) | further results |
| --- | --- | --- | --- | --- | --- |
| COC(=O)c1c(C)[nH]c2c1C13CC1CN(C(=O)/C=C/c1ccc(OC)nc1)C3=CC2=O (centres unmarked) [Compound 1] | 9.38 |  |  |  |  |
| COC(=O)c1c(C)[nH]c2c(OC(=O)N3CCN(C)CC3)cc3c(c12)C(CBr)CN3C(=O)/C=C/c1ccc(OC)nc1 (centres unmarked) [Compound 3] |  | > 20 mg/mL | 1.0 mg/kg | 6.96 | response vs control in vivo at 1 mg/kg [4]: 36% |
| COC(=O)Oc1cc2c(c3c(C(=O)OC)c(C)[nH]c13)C(CBr)CN2C(=O)/C=C/c1ccc(OC)nc1 (centres unmarked) [Compound 4] |  |  | 0.50 mg/kg | 9.15 | response vs control in vivo at 0.5 mg/kg [4]: 35% |
| COC(=O)c1c(C)[nH]c2c1C13CC1CN(C(=O)/C=C/c1cnc(OC)nc1)C3=CC2=O (centres unmarked) [Compound 6] | 9.05 |  |  |  |  |
| COC(=O)c1c(C)[nH]c2c(OC(=O)N3CCN(C)CC3)cc3c(c12)C(CBr)CN3C(=O)/C=C/c1cnc(OC)nc1 (centres unmarked) [Compound 8] |  | > 20 mg/mL | 4.0 mg/kg | 6.77 | response vs control in vivo at 2 mg/kg [4]: 26% |
| COC(=O)c1c(C)[nH]c2c(OC(C)=O)cc3c(c12)C(CBr)CN3C(=O)/C=C/c1cnc(OC)nc1 (centres unmarked) [Compound 11] |  |  | 1.0 mg/kg | 9.04 | response vs control in vivo at 1 mg/kg [4]: 17% |
| COC(=O)c1c(C)[nH]c2c1C13CC1CN(C(=O)/C=C/c1ccc(OC)nn1)C3=CC2=O (centres unmarked) [Compound 12] | 9.55 |  |  |  |  |
| COC(=O)c1c(C)[nH]c2c(OC(=O)N3CCN(C)CC3)cc3c(c12)C(CBr)CN3C(=O)/C=C/c1ccc(OC)nn1 (centres unmarked) [Compound 14] |  | > 20 mg/mL | 0.50 mg/kg | 7.05 | response vs control in vivo at 1 mg/kg [4]: 31% |
| COC(=O)c1c(C)[nH]c2c(OC(=O)N3CCN(C)CC3)cc3c(c12)C(CBr)CN3C(=O)/C=C/c1ccc(OC)cn1 (centres unmarked) [Compound 17] |  | > 20 mg/mL |  |  |  |
| COC(=O)c1c(C)[nH]c2c1C13CC1CN(C(=O)COc1ccc(OC)cc1)C3=CC2=O (centres unmarked) [Compound 18] | 9.72 |  |  |  |  |
| COC(=O)c1c(C)[nH]c2c(OC(=O)N3CCN(C)CC3)cc3c(c12)C(CBr)CN3C(=O)COc1ccc(OC)cc1 (centres unmarked) [Compound 20] |  |  | 0.50 mg/kg | 7.03 | response vs control in vivo at 0.5 mg/kg [4]: 20% |
| COC(=O)c1c(C)[nH]c2c1C13CC1CN(C(=O)COc1ccc(OC(F)(F)F)cc1)C3=CC2=O (centres unmarked) [Compound 23] | 8.80 |  |  |  |  |
| COC(=O)c1c(C)[nH]c2c(OC(=O)N3CCN(C)CC3)cc3c(c12)C(CBr)CN3C(=O)COc1ccc(OC(F)(F)F)cc1 (centres unmarked) [Compound 25] |  | 0.2 mg/mL (≈ 0.293 mM) | 4.0 mg/kg | 5.96 | response vs control in vivo at 2 mg/kg [4]: 12% |
| COC(=O)c1c(C)[nH]c2c1C13CC1CN(C(=O)/C=C/c1ccc(NC(=O)OC(C)(C)C)cc1)C3=CC2=O (centres unmarked) [Compound 26] | 9.25 |  |  |  |  |
| COC(=O)c1c(C)[nH]c2c1C13CC1CN(C(=O)/C=C/c1ccc(N(C)C)cc1)C3=CC2=O (centres unmarked) [Compound 27] | 8.80 |  |  |  |  |
| COC(=O)c1c(C)[nH]c2c1C13CC1CN(C(=O)/C=C/c1ccc(N)cc1)C3=CC2=O (centres unmarked) [Compound 28] | 8.59 |  |  |  |  |
| COC(=O)c1c(C)[nH]c2c1C13CC1CN(C(=O)/C=C/c1ccc(OC)c(OCCCN)c1)C3=CC2=O (centres unmarked) [Compound 30] | 8.85 |  |  |  |  |
| COC(=O)c1c(C)[nH]c2c(OC(=O)N3CCN(C)CC3)cc3c(c12)C(CBr)CN3C(=O)/C=C/c1ccc(OC)c(OCCCN)c1 (centres unmarked) [Compound 32] |  | > 20 mg/mL |  |  |  |
| COC(=O)COc1cc(/C=C/C(=O)N2CC3CC34C2=CC(=O)c2[nH]c(C)c(C(=O)OC)c24)ccc1OC (centres unmarked) [Compound 34] | 9.07 |  |  |  |  |
| COC(=O)c1c(C)[nH]c2c1C13CC1CN(C(=O)/C=C/c1ccc(OC)c(N)c1)C3=CC2=O (centres unmarked) [Compound 37] | 9.28 |  |  |  |  |
